Test [1] deals with rat experimental apical periodontitis. The test is described as follows: Rat apical periodontitis model: size of apical lesions by micro-CT. Type of test: in vivo. As to conditions: male Wistar rats, 150 mg/kg orally twice per day. On the procedure: Using a rat apical periodontitis model, pharmacological tests were conducted for monosodium (2S,3S)-3-[[(1S)-1-isobutozymethyl-3-methylbutyl]-carbamoyl]oxirane-2-carboxylate.
(§1) An experiment was conducted using six-week-old male Wistar rats. After the pulp of the mandibular first molar was exposed using a round bar, apical periodontitis was induced by extracting the pulp and opening it inside the oral cavity. In the experimental groups, monosodium (2S,3S)-3-[[(1S)-1-isobutozymethyl-3-methylbutyl]-carbamoyl]oxirane-2-carboxylate (compound A: 150 mg/kg) was orally administered twice per day. A non-administration group was used as a control. After 21 days, the rats were euthanized and the jawbone surrounding each mandibular molar was extracted. The left side was fixed in 4% paraformaldehyde/phosphate buffer solution (PBS) (4° C., 12 hours), and then the size of the apical lesion was measured by micro-CT imaging (Shimadzu SMX-90CT). […] On the right side, the lesion portion surrounding the apex was extracted as a lump together with the apex, and after RNA extraction (Qiagen: RNeasy Lipid Tissue Mini Kit), cDNA was created by ordinary methods (Invitrogen: Superscript III), and the levels of expression of inflammatory cytokines (IL-1α and IL-6) were measured by real-time PCR (BioRad: DNA Engine Opticon 2; Invitrogen: Platinum SYBR Green qPCR SuperMix).

In test [2] the test system is osteoclasts on the alveolar bone surrounding the apex. The test is described as follows: Rat apical periodontitis model: histological examination (HE and TRAP staining) of osteoclasts. It is filed as in vivo. As to conditions: male Wistar rats, 150 mg/kg orally twice per day, after 21 days, vs control group. As to the method: as §1, with “SMX-90CT). After that, it was decalcified with 15% EDTA solution and embedded in OCT compound, and frozen slices 7 μm thick were made.” for “SMX-90CT).”

The next test has as its system IL-1α. The test is described as follows: Rat apical periodontitis model: level of expression of IL-1α in the lesions by real-time PCR. It is filed as in vivo. The settings on record: male Wistar rats, 150 mg/kg orally twice per day, after 21 days, vs control group. As to the method: as §1, with “SMX-90CT). After that, it was decalcified with 15% EDTA solution and embedded in OCT compound, and frozen slices 7 μm thick were made.” for “SMX-90CT).”

The test system of the next test is IL-6. The test is described as follows: Rat apical periodontitis model: level of expression of IL-6 in the lesions by real-time PCR. It is filed as in vivo. The settings on record: male Wistar rats, 150 mg/kg orally twice per day, after 21 days, vs control group. On the procedure: as §1, with “SMX-90CT). After that, it was decalcified with 15% EDTA solution and embedded in OCT compound, and frozen slices 7 μm thick were made.” for “SMX-90CT).”
(In qPCR the cycle at which signal appears reflects the starting amount.)

The target in another test is T1, cathepsin K (Homo sapiens, UniProt P43235).
T1 sequence (P43235 115-329): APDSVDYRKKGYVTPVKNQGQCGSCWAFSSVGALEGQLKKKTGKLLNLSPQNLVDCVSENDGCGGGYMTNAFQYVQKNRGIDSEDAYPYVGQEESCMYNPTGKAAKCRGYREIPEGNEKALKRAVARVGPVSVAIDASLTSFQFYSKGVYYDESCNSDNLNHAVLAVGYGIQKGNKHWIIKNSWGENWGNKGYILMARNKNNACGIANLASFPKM
The settings on record: known from Patent Reference 4 (WO 99/11640); cited from earlier work.

Entries after “also recorded” stand apart in the source; their conditions may differ.

Regarding `CC(C)COC[C@H](CC(C)C)NC(=O)[C@H]1O[C@@H]1C(=O)[O-].[Na+]` [compound A, monosodium (2S,3S)-3-[[(1S)-1-isobutozymethyl-3-methylbutyl]-carbamoyl]oxirane-2-carboxylate], the “suppressive effect against progression of rat experimental apical periodontitis” value in test [1] (21 days) is “excellent suppressive effect”. The “size of apical lesions by micro-CT” value in test [1] (after 21 days, vs control group, 150 mg/kg) is recorded as “smaller apical lesions were formed; also recorded: their size was smaller than in the control group”. The “number of osteoclasts on the alveolar bone surrounding the apex (histological examination)” value in test [2] is on record as “their number tended to be small”. Moreover, the “level of expression of IL-1α in the lesions” value in the test on IL-1α is recorded as “significantly suppressed”. Also, the “level of expression of IL-6 in the lesions” value in the test with IL-6 is recorded as “significantly suppressed”. Moreover, the “cathepsin K inhibiting action” value on cathepsin K is reported as “has a cathepsin K inhibiting action”.

The values above are taken from US20130018094A1, “Prophylactic or Therapeutic Agent For Gum Disease or Apical Periodontitis” (priority 2009, published 2013).
